Key:
[1] = tested on: hMLH1-proficient (MMR+) RKO cells; experiment: MTT cell viability assay, hMLH1-proficient (MMR+) RKO; assay type: cell-based; conditions: Homo sapiens, mean ± SD
Text: We further attempted to determine whether 20d-induced cancer cell death was related to the induction of ROS production in HCT-116 cells. For this purpose, we pretreated cells with N-acetyl-L-cysteine (NAC), which is a commonly used antioxidant and ROS scavenger. […] HCT-116 cell line has high-frequency microsatellite instability, which is associated with deficient DNA mismatch repair (MMR)[31]. The MMR system corrects DNA-mismatched and insertion–deletion loop bases generated during DNA replication. One of the key proteins involved in the MMR pathway is MLH1, which is mutated or epigenetically silenced in many MMR-deficient (MMR^–) cells, such as HCT-116[33]. To further determine the selectivity for MMR deficiency, we analyzed the cell viability of human MutL homologue 1 (hMLH1)-deficient (MMR^–) and hMLH1-proficient (MMR^+) RKO human colon carcinoma cell lines. The latter was established by transfecting hMLH1 cDNA into MMR^− RKO cell line[34]. In MMR^– RKO cells, the hMLH1 gene promoter was silenced transcriptionally by hypermethylation. […]
The viability of cells was determined in response to the newly synthesized compounds using the MTT (Sigma-Aldrich) assay. […] Next, the medium was removed, the formazan product formed was dissolved in 100 μl of DMSO, and the absorbance was determined at 540 nm using an ASYS UVM340 microplate reader (Biochrom Ltd.). […]

HCT-116 cells [2] = experiment: ROS level, H2DCFDA probe, flow cytometry, HCT-116; assay type: cell-based
Method: Reactive oxygen species (ROS) affect the cellular redox homeostasis resulting in extensive and irreparable damage and ultimately cell death. Anticancer compounds with cytotoxic properties often cause disturbances in the redox state in cells. Therefore, we performed a time-dependent kinetic analysis of the intracellular ROS level in colon cancer cell lines after treatment with 20d.
The […] ROS levels were determined using an H2DCFDA (2′,7′-dichlorodihydrofluorescein diacetate) probe (Thermo Fisher) following the manufacturer’s protocol. […] DMSO (1%, Merck) and 250 μM H2O2 were used as a negative and positive control, respectively. NAC (500 μM, Sigma-Aldrich) was used as an ROS scavenger to confirm the ROS activity. After treatment with 20d and 19b, cells were incubated with H2DCFDA at 37 °C for 30 min. Subsequently, cells were harvested by trypsinization, rinsed with PBS, and stained with 7-AAD (Thermo Fisher). Finally, the stained cells were analyzed by flow cytometry using a Guava easyCyte 8 cell sorter (Merck Millipore) and FlowJo v10 software.
ROS analysis was performed by seeding the cells into cover glass-bottom 24-well plates for live-cell imaging. Cells were treated with compounds and stained as described above for flow cytometry. […]

HCT-116 cells [3] = experiment: Western blot protein expression in HCT-116 cells; assay type: cell-based, human
Method: HCT-116 cells were seeded into 60-mm Petri dishes at a density of 1.5 × 10^6 cells per dish and incubated overnight. […] After treatment, cells were lysed in Laemmli buffer with a protease and phosphatase inhibitors cocktail (Roche), followed by sonification The lysate was cleared by centrifuging at 16,000×g for 15 min at 12 °C. The supernatant was collected, and the extract was quantified for protein using the DC Protein Assay (Bio-Rad). Proteins were resolved by 10% or 12% sodium dodecyl sulfate–polyacrylamide gel electrophoresis and transferred to polyvinylidene difluoride membranes (Bio-Rad). Membranes were blocked using 5% (w/v) bovine serum albumin (Sigma-Aldrich) in 1× TBST (pH 7.4 and 0.1% Tween-20) for 1 h at room temperature and subsequently incubated overnight with primary antibodies at 4 °C. The blots were washed thrice with TBST and then incubated with horseradish peroxidase-conjugated antibodies for 1 h at room temperature. After washing, the membranes were evaluated for detecting the protein bands using enhanced chemiluminescence detection reagent kit (Thermo Fisher) and ChemiDoc XRS + Imaging System (Bio-Rad). The band intensity was measured using ImageLab 5.2 software (Bio-Rad).

O=C(Nc1cccc(F)c1)OC1CCCc2c(-c3ccccc3)cc(=O)[nH]c21 (stereo not drawn) [Compound 20d, (2-oxo-4-phenyl-5,6,7,8-tetrahydroquinolin-8-yl) N-(3-fluorophenyl)carbamate] was tested, and the IC50 [1] was 4.78 ± 0.38 µM, the “increase in ROS level compared to vehicle” value (HCT-116 cells [2]; HCT-116, IC50 concentration, 1-24 h) was ~ 30% and the “cytotoxic effect after pretreatment with NAC” value (HCT-116 cells [2]; HCT-116, NAC 500 μM) was “NAC diminished the cytotoxic effect”. For the same compound, the “expression of LAMP-1 protein” value (HCT-116 cells [3]; HCT-116) was “time-dependent increase”, the expression of vimentin (HCT-116 cells [3]; HCT-116) was “significantly altered” and the “level of phospho-AKT (Ser473)” value (HCT-116 cells [3]; HCT-116) was “significantly reduced”. For the same compound, the “level of phospho-mTOR (Ser2448)” value (HCT-116 cells [3]; HCT-116) was “significantly reduced”, the “expression of p-γ-H2AX” value (HCT-116 cells [3]; HCT-116, 24–72 h, immunoblot and immunofluorescence) was “significantly increased” and the “cyclin D1 expression” value (HCT-116 cells [3]; HCT-116, 72 h, vs DMSO) was “slight inhibition”. The β-catenin (HCT-116 cells [3]; HCT-116, even after 24 h) was “caused the cleavage of β-catenin”, the “levels of LC3-II” value (HCT-116 cells [3]; HCT-116, vs control) was “higher” and the “expression of p21” value (HCT-116 cells [3]; HCT-116, vs control, p < 0.001) was “markedly higher”. For the same compound, the “expression of p27” value (HCT-116 cells [3]; HCT-116, vs control, p < 0.001) was “markedly higher”, the “expression of p53” value (HCT-116 cells [3]; HCT-116, vs control, p < 0.001) was “markedly higher” and the expression of c-myc (HCT-116 cells [3]; HCT-116, vs vehicle) was “downregulated”.

— PMC9200803, “Design, synthesis, and biological evaluation of tetrahydroquinolinones and tetrahydroquinolines with anticancer activity” (Scientific Reports, 2022)
